The nature of experiment [1]: Dissociation constant for binding of camptothecin to the synthetic peptide NSSQSARR by using quartz-crystal microbalance (QCM) method after compound dissolved in 10 % DMSO at 25 degree C.
The nature of experiment [2]: Dissociation constant for binding of camptothecin to the synthetic peptide NSSQSARR by surface plasmon resonance (SPR) method after compound dissolved in 10 % DMSO at 25 degree C. In general terms: In SPR one partner is held on a chip, and binding of the other changes the refractive index at the surface.

In the case of `CC[C@@]1(O)C(=O)OCc2c1cc1n(c2=O)Cc2cc3ccccc3nc2-1` [CAMPTOTHECIN], the equilibrium dissociation constant (Kd) in experiment [1] amounted to 94 nM; in experiment [2], 112 nM.

What is called Kd is the concentration at which binding is half-saturated. Higher therefore signals weaker binding.

The values above are taken from ChEMBL document CHEMBL1143477, “Camptothecin binds to a synthetic peptide identified by a T7 phage display screen” (Bioorg Med Chem Lett, 2005).
